In the supplement of paper PMC10307832 one finds relative viability data, which are given here for one cell line.

Experiment in all cases: relative viability (nuclei count vs DMSO), 5 days (fraction); higher = more cells survive
Compound in experiment [1]: COc1cc(-c2nn([C@H]3CC[C@H](N4CCN(C(C)=O)CC4)CC3)c3ncnc(N)c23)ccc1NC(=O)c1cc2ccccc2n1C + CS(=O)(=O)CCNCc1ccc(-c2ccc3ncnc(Nc4ccc(OCc5cccc(F)c5)c(Cl)c4)c3c2)o1 [Lapatinib] (partner 2 µM)
An outline of the steps: (§1)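 Relative viability is defined as nuclei in treated wells over nuclei in vehicle wells. Duplicate plates were run and medians reported. Lung cancer cell lines in 1536-well plates were dosed by pin tool one day after seeding, with one drug or with a fixed anchor-drug dose plus five library-drug doses (not always all listed) in √10 steps, and nuclei were counted after 5 days.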

Compound in the experiment “Midostaurin + Pictilisib”: CO[C@@H]1[C@H](N(C)C(=O)c2ccccc2)C[C@H]2O[C@]1(C)n1c3ccccc3c3c4c(c5c6ccccc6n2c5c31)C(=O)NC4 [Midostaurin] + CS(=O)(=O)N1CCN(Cc2cc3nc(-c4cccc5[nH]ncc45)nc(N4CCOCC4)c3s2)CC1 [Pictilisib] (partner 1 µM)
The procedure, abridged:
as §1

Compound in experiment [2]: CO[C@@H]1[C@H](N(C)C(=O)c2ccccc2)C[C@H]2O[C@]1(C)n1c3ccccc3c3c4c(c5c6ccccc6n2c5c31)C(=O)NC4 [Midostaurin] + CC(=O)c1c(C)c2cnc(Nc3ccc(N4CCNCC4)cn3)nc2n(C2CCCC2)c1=O [Palbociclib] (partner 0.5 µM)
An outline of the steps:
as §1

Compound in the experiment “Midostaurin + Luminespib”: CO[C@@H]1[C@H](N(C)C(=O)c2ccccc2)C[C@H]2O[C@]1(C)n1c3ccccc3c3c4c(c5c6ccccc6n2c5c31)C(=O)NC4 [Midostaurin] + CCNC(=O)c1noc(-c2cc(C(C)C)c(O)cc2O)c1-c1ccc(CN2CCOCC2)cc1 [Luminespib] (partner 0.01 µM)
The procedure, abridged:
as §1

Compound in experiment [3]: COc1cc(-c2nn([C@H]3CC[C@H](N4CCN(C(C)=O)CC4)CC3)c3ncnc(N)c23)ccc1NC(=O)c1cc2ccccc2n1C + O=C(CCCCCCC(=O)Nc1ccccc1)NO [Vorinostat] (partner 1 µM)
The procedure, abridged:
as §1

Turning to UMC-11, the relative viability was determined as 1.04 in experiment [1] (first compound 0.0128 µM); 0.978 in experiment [1] (first compound 0.04048 µM); 0.712 in experiment [1] (first compound 0.128 µM); 0.739 in experiment [1] (first compound 1.28 µM); 0.859 in the experiment with Midostaurin + Pictilisib (first compound 0.01 µM); 0.602 with Midostaurin + Pictilisib (first compound 0.03162 µM). Moreover, the relative viability stood at 0.871 with Midostaurin + Pictilisib (first compound 0.1 µM); 0.663 in the experiment with Midostaurin + Pictilisib (first compound 0.3162 µM); 0.352 in experiment [2] (first compound 0.01 µM); 0.391 in experiment [2] (first compound 0.03162 µM); 0.364 in experiment [2] (first compound 0.1 µM); 0.284 in experiment [2] (first compound 0.3162 µM). For the same cell line, the relative viability with Midostaurin + Luminespib (first compound 0.01 µM) was found to be 1.02; in the experiment with Midostaurin + Luminespib (first compound 0.03162 µM) it was 0.849; in the experiment with Midostaurin + Luminespib (first compound 0.1 µM) it was 0.932; in the experiment with Midostaurin + Luminespib (first compound 0.3162 µM) it was 0.463; in experiment [3] (first compound 0.0128 µM), 0.44; in experiment [3] (first compound 0.04048 µM), 0.38. Besides, the relative viability in experiment [3] (first compound 0.128 µM) turned out to be 0.351; in experiment [3] (first compound 1.28 µM), 0.342.
